Laboratory results taken from US10336752B2, “TYK2 inhibitors, uses, and methods for production thereof” (Nimbus Lakshmi, Inc., priority 2017, dated 2019).
Values after ≈ are worked out from the molar mass of the structure shown.

How the values were obtained:
[1] = Dissolution Assay in Fasted Simulated Gastric Fluid; type: physicochemical; conditions: 37° C., 50 rpm, compressed disc
Experimental: The dissolution bath was filled with 900 mL of media for testing, the bath temperature held at 37° C., the rotation rate of the apparatus was 50 rpm, the draw point for the sampling probe was set exactly halfway between the surface of the media and the surface of the disc. The test article (0.4 g) was compressed into a disc using a Woods apparatus. The sampling time points were 10, 30, 60, 90, 120, 150 & 180. The samples were analysed by HPLC for concentration against a sample preparation of known concentration (ca. 0.5 mg/ml). Dissolution rate was derived from the curve of concentration against time.

[2] = Kinetic Solubility Determination Assay; type: physicochemical; conditions: aqueous buffer, kinetic from dmso stock, PBS pH 7.4, RT, read-out: Kin. Sol. pH 7.4
Experimental: Stock solutions of test compounds were prepared in DMSO at the concentration of 10 mM. The stock solutions of positive control compound were prepared in DMSO at the concentration of 30 mM. Progesterone was used as positive control in the assay. 30 μL stock solution of each compound was placed in order into their proper 96-well rack, followed by adding 970 μL of PBS at pH 7.4 into each vial of the cap-less solubility sample plate. This study was performed in duplicate. One stir stick was added to each vial and then vials were sealed using a molded PTDE/SIL 96-Well Plate Cover. The Solubility Sample plate was transferred to the Thermomixer Comfort plate shaker and incubated at RT for 2 hours with shaking at 1100 rpm. After 2 hours incubation, stir sticks were removed using a big magnet and all samples from the Solubility Sample plate were transferred into the filter plate. All the samples were filtered by using the vacuum manifold. The filtered samples were diluted with methanol. Standards of each test compound were prepared at 0.3, 0.09 and 0.1 μM concentrations and both the test samples and standards were analyzed by LC-MS and the test samples were quantified against a standard of known concentration in DMSO using mass spectral peak identification and quantitation.

TYK2 = TYK2 (Homo sapiens (Human), UniProt P29597); assay: 1 mM ATP Tyk2 Caliper Assay; type: biochemical; conditions: ATP 1000 uM
Experimental: Compounds were serially diluted in DMSO then further diluted in 1x kinase buffer: 5 uL of buffer diluted compound was added into wells first, then 10 uL of Tyk2 enzyme mix was added into wells, followed by 10 uL of substrate mix to start reaction. Reaction was incubated at 28° C. for 25 min and then added 25 uL stop buffer. The reaction mixture was read by a Caliper […]. Final concentrations for assay conditions were: 25 mM HEPES, pH 7.5, 0.01% Brij-35, 0.01% Triton, 0.5 mM EGTA, 2 mM DTT, 10 mM MgCl2, TYK2 4 nM, ATP concentration 1000 uM, and P30 3 uM.

[3] = CACO-2 Cell Permeability Assay; type: in vitro ADME; conditions: human, Caco-2, pH 7.4, apical to basolateral
Experimental: Caco-2 cells were diluted to 6.86×10^5 cells/mL with culture medium and 50 μL of cell suspension were dispensed into the filter well of the 96-well HTS Transwell plate. Cells were cultivated for 14˜18 days in a cell culture incubator at 37° C., 5% C02, 95% relative humidity. Cell culture medium was replaced every 2 days, beginning no later than 24 hours after initial plating. 3) After 14˜18 days incubation, the plates were removed from incubator. The inserts were washed twice with pre-warmed HBSS (10 mM HEPES, pH 7.4) and placed into receiver plates. 75 μL and 235 μL of buffer were added to each Transwell inserts and receiver wells, respectively. Then the plates were incubated for 30 min at 37° C. with shaking at 150 rpm. Stock solutions of control compound were prepared in DMSO at 10 mM and then diluted to 1 mM with DMSO followed by further diluting with HBSS (10 mM HEPES, pH 7.4) to get compound working solution. Stock solutions of test compound were prepared in DMSO at 10 mM and then diluted to 1 mM with DMSO followed by further diluting with HBSS (10 mM HEPES, pH 7.4, 4% BSA) to get compound working solution. The final concentration of test compound and control compound was 5 μM. To determine the rate of drug transport in the apical to basolateral direction, 75 μL of compound working solution was added to the filter well (apical compartment) and 235 μL of HBSS (10 mM HEPES, pH 7.4, or 4% BSA) to receiver plate (basolateral compartment). To determine the rate of drug transport in the basolateral to apical direction, 235 μL of compound working solution was added to each well of the receiver plate (basolateral compartment) and 75 μL of HBSS (10 mM HEPES, pH 7.4, or 4% BSA) to filter well (apical compartment). The assay was performed in duplicate. 6) Plates were incubated for 2 hours at 37° C. At the end of the transport period, aliquots of 50 μL were removed directly from the apical and basolateral wells and transferred to wells of new plates. Four volumes of cold Methanol containing internal standards (IS, 100 nM Alprazolam, 200 nM Labetalol and 200 nM Diclofenac) was added into each well. Samples were centrifuged at 3,220 g for 30 minutes. An aliquot of 100 μL of the supernatant mixed with 100 μL of ultra-pure water were used for LC-MS/MS analysis. 7) Solution was discarded from Transwell plates. 100 μL of Lucifer Yellow solution (100 μM in HBSS) and 300 μL of HBSS were added into each well of Transwell insert and receiver, respectively, for leakage determination. Plates were incubated at 37° C. for 30 minutes. 80 μL aliquots from wells of apical and basolateral sides were transferred to solid black plates and the plate was read with Tecan Infinite M 200 (Excitation/Emission wavelength 485 nm/530 nm). The liquid fractions, apical and basolateral layers were analyzed by LC-MS to determine Papp(A-B), Papp(B-A) and recovery.

[4] = Metabolic Clearance Assay in Microsomes (human liver microsomes); type: in vitro ADME; conditions: NADPH and UDPGA, read-out: HLM Clint
Experimental: A master solution was prepared containing 0.5 mg/mL of either rat or human liver microsomes, 5 mM MgCl2, 100 mM phosphate buffer, and 25 ug/mL alamethacin. 40 μL of 10 mM NADPH solution and 40 μL of 20 mM UDPGA solution were added to each well. The final concentrations of NADPH and UDPGA were 1 mM and 2 mM, respectively. The mixture was pre-warmed at 37° C. for 5 minutes. The negative control samples were prepared by replacing NADPH and UDPGA solutions with 80 μL of ultra-pure H2O. The negative control was used to exclude the misleading factor that resulted from instability of chemical itself. This study was performed in duplicate. The reaction was started with the addition of 2 μL of 400 μM control compound or test compound solutions. Diclofenac was used as positive control in this study. The final concentration of test compound or control compound was 2 μM. Aliquots of 50 μL were taken from the reaction solution at 0, 15, 30, 45 and 60 minutes. The reaction was stopped by the addition of 4 volumes of cold acetonitrile (or methanol) with internal standard (IS) (100 nM alprazolam, 200 nM imipramine, 200 nM labetalol and 2 μM ketoprofen) at the designated time points. Samples were centrifuged at 3,220 g for 40 minutes to precipitate protein. Aliquot of 100 μL supernatant diluted by 100 μL of water was used for LC-MS/MS analysis. The in vitro half-life, scale-up intrinsic clearance, and predicted hepatic clearance were calculated according to standard calculations.

[5] = Pharmacokinetic Study in Dogs; type: in vivo; conditions: male, Beagle; dog, oral gavage 10 mg/kg, 20% HPβCD aq., plasma
Experimental: Male Beagle dogs (9-14 kg; 2.5 to 5.5 years of age) housed one per cage under standard laboratory conditions were fasted for approximately 16 to 17 hours prior to dosing with food returned approximately 2 hours after dosing. […] Blood samples were collected from the jugular vein (˜1.5 mL) by venipuncture, and stored in tubes treated with K2EDTA, then centrifuged (3000 g, 4° C., 5 min). The plasma samples were transferred and stored at −70° C. until analysis. Bioanalysis: Concentrations for experimental samples and plasma calibration standards were determined by LC/MS/MS (API-5500, reverse-phase chromatography, APCI) following extraction by plasma precipitation with cold acetonitrile (4:1 ACN/plasma by volume) containing verapamil as an internal standard. PK Analysis: The individual animal plasma concentration-time data was analyzed by noncompartmental analysis (linear trapazoidal fitting) using PK Solver software (v2.0).

[6] = Solid form stability of Compound 1 mesylate forms; type: physicochemical; conditions: for solid form stability at ambient conditions: drying / ambient conditions

TYK2, sequence (P29597 whole entry): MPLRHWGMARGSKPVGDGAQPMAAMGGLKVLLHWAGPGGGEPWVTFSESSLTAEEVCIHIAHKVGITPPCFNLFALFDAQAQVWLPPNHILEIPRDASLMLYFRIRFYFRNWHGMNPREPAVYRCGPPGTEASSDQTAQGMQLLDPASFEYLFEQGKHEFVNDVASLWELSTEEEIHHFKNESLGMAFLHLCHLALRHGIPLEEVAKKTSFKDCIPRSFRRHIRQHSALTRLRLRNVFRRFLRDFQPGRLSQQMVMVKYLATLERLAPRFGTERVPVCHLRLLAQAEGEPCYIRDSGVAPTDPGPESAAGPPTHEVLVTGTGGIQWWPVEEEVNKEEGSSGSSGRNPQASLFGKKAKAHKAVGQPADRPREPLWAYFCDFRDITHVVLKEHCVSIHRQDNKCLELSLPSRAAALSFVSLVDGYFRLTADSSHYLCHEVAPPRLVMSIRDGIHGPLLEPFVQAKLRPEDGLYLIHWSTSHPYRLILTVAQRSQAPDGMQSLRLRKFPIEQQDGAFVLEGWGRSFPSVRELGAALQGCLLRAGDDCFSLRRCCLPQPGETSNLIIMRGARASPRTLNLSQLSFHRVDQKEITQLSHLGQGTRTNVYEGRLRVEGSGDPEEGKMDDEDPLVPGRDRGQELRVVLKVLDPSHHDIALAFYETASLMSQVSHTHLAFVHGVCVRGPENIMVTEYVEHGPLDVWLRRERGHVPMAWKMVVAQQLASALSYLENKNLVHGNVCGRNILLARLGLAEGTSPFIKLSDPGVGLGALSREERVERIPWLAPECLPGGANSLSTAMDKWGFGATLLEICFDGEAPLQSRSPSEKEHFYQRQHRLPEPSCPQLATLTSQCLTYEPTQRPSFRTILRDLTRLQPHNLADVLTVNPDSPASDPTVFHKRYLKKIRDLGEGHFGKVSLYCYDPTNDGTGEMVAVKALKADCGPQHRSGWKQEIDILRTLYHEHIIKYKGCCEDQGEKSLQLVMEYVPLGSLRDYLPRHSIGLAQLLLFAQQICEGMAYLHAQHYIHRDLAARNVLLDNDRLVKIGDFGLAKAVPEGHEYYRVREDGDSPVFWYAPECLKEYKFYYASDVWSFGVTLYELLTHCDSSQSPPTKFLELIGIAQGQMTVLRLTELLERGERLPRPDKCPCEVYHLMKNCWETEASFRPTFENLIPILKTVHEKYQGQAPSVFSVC

Row | SMILES | dissolution rate in Fasted Simulated Gastric Fluid (FaSSGF) [1] [μg/cm^2/min] | solubility kinetic at 2 h [2] [µM] | IC50 (TYK2) [nM] | Papp A→B at 2 h, 5 μM [3] [×10⁻⁶ cm/s] | CLint scaled at 2 μM [4] [mL/min/kg] | AUC(0-t) [5] [ng·h/mL] | Cmax [5] [ng/mL] | solid form stability at ambient conditions [6] | solid form stability upon grinding ([6]; grinding)
1 | O=C1NCc2nc(-c3c(F)cccc3F)cc(Nc3ccc(C(=O)N4CCOCC4)cc3)c21 [Compound 9] | 21.2 | 172 (≈ 77.3 µg/mL) | 134 | 3.43 | 3 | 10200 | 1070 |  | 
2 | O=C1NCc2nc(-c3c(F)cccc3F)cc(Nc3ccc(C(=O)N4C[C@H]5COC[C@H]5C4)cc3)c21 [Compound 17] |  | 205 (≈ 97.5 µg/mL) | 88.6 | 1.52 |  |  |  |  | 
3 | O=C1NCc2nc(-c3c(F)cccc3F)cc(Nc3ccc(C(=O)N4CCCCC4)cc3)c21 [Compound 10] |  | 1.45 (≈ 0.65 µg/mL) | 90 | 4.03 | 7.81 |  |  |  | 
4 | CS(=O)(=O)O.O=C1NCc2nc(-c3c(F)cccc3F)cc(Nc3ccc(C(=O)N4CCCC4)cc3)c21 [Form III of Compound 1 mesylate] |  |  |  |  |  |  |  | transition to Form IV | 
5 | N#Cc1cccc(F)c1-c1cc(Nc2ccc(C(=O)N3CCCC3)cc2)c2c(n1)CNC2=O [Compound 16] |  | 32.9 (≈ 14.5 µg/mL) | 17.7 | 2.63 |  |  |  |  | 
6 | O=C1NCc2nc(-c3c(F)cccc3F)cc(Nc3ccc(C(=O)N4CCCC4)cc3)c21 [Compound 1] | 57.5 | 274 (≈ 119 µg/mL) |  | 5.77 | 0.62 | 18700 | 2100 |  | 
7 | O=C1NCc2nc(-c3c(F)cccc3F)cc(Nc3ccc(C(=O)N4CCC4)cc3)c21 [Compound 15] |  | 3.75 (≈ 1.58 µg/mL) | 74.1 | 7.59 | 1.78 |  |  |  | 
8 | O=C1NCc2nc(-c3c(F)cccc3F)cc(Nc3ccc(C(=O)N4CCOCC4)nc3)c21 [Compound 13] |  | 252 (≈ 114 µg/mL) |  | 2.89 | 1.9 |  |  |  | 
9 | O=C1NCc2nc(-c3c(F)cccc3F)cc(Nc3ccc(N4CCCC4)cn3)c21 [Compound 7] |  | < 0.5 | 390 | 13.5 | 10.9 |  |  |  | 
10 | CS(=O)(=O)O.O=C1NCc2nc(-c3c(F)cccc3F)cc(Nc3ccc(C(=O)N4CCCC4)cc3)c21 [Form IV of Compound 1 mesylate] |  |  |  |  |  |  |  | stable | 
11 | N#Cc1cccc(F)c1-c1cc(Nc2ccc(C(=O)N3CCOCC3)cc2)c2c(n1)CNC2=O [Compound 14] |  | 271 (≈ 124 µg/mL) | 24.2 | 2.08 |  |  |  |  | 
12 | CS(=O)(=O)O.O=C1NCc2nc(-c3c(F)cccc3F)cc(Nc3ccc(C(=O)N4CCCC4)cc3)c21 [Form V of Compound 1 mesylate] |  |  |  |  |  |  |  |  | transition to Form I
13 | CC1(O)CCN(C(=O)c2ccc(Nc3cc(-c4c(F)cccc4F)nc4c3C(=O)NC4)cc2)CC1 [Compound 12] |  | 237 (≈ 113 µg/mL) | 136 | 0.41 |  |  |  |  | 
14 | CCN(CC)C(=O)c1ccc(Nc2cc(-c3c(F)cccc3F)nc3c2C(=O)NC3)cc1 [Compound 11] |  | 1.86 (≈ 0.812 µg/mL) | 119 | 5.62 |  |  |  |  | 
15 | O=C1NCc2nc(-c3c(F)cccc3F)cc(Nc3ccc(N4CCOCC4)cn3)c21 [Compound 8] |  | 11.9 (≈ 5.05 µg/mL) | 33 | 13.1 | 1.2 |  |  |  | 
